The values below come from BindingDB's records for doi:10.1111/cbdd.12732 (Yogi Vemana University, 2016).

Sequence of Acetylcholinesterase (O42275 whole entry): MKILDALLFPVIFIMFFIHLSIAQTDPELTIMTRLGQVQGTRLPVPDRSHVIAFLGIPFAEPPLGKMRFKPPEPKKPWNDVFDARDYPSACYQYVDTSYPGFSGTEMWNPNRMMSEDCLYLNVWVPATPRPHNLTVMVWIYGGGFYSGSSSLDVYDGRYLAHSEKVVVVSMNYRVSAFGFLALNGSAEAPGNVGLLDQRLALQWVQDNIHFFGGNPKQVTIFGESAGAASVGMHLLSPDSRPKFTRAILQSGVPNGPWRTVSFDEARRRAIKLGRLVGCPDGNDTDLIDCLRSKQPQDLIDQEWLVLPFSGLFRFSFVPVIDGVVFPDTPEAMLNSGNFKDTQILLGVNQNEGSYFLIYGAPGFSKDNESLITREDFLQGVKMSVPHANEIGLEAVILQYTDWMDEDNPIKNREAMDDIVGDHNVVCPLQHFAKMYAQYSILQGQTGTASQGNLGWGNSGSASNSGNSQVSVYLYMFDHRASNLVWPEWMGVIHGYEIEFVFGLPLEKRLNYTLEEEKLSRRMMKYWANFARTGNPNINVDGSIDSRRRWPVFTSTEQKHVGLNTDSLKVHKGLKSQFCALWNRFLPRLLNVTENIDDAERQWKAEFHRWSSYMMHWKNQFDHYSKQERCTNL

The target in this assay is Acetylcholinesterase (Electrophorus electricus, UniProt O42275). The experiment in a line: AChE Inhibitory Assay. As to conditions: pH 7.7. The procedure:
The mixture was incubated at 25 °C for 5 min. Subsequently, the enzymatic reaction was initiated by addition of 15 µL of 1 mM of acetylthiocholine iodide or butyrylthiocholine iodide (according to the respective enzyme), and the mixture was again incubated for 5 min at 25 °C. The rate of absorbance change was measured at 412 nm for 6 min using a microplate reader (Bio-Rad 680, Germany). Galantamine was applied as positive drug.
On to `CNC(=O)c1cc2c(ccc3ccc(=O)oc32)oc1=N` [8-imino-N-methyl-2-oxo-2H,8H-pyrano[2,3-f]chromene-9-carboxamide (4a)], for which the 50% inhibitory concentration (IC50) turned out to be 415 nM.

On to `COc1ccccc1OCCNC(=O)c1cc2c(ccc3ccc(=O)oc32)oc1=N` [8-imino-N-(2-(2-methoxyphenoxy)ethyl)-2-oxo-2H,8H-pyrano[2,3-f]chromene-9-carboxamide (4q)], for which the IC50 was determined as 440 nM.

`COc1ccc(CNC(=O)c2cc3c(ccc4ccc(=O)oc43)oc2=N)c(OC)c1` [N-(2,4-dimethoxybenzyl)-8-imino-2-oxo-2H,8H-pyrano[2,3-f]chromene-9-carboxamide (4k)] registered a concentration for half-maximal inhibition (IC50) of 300 nM.

`CC(NC(=O)c1cc2c(ccc3ccc(=O)oc32)oc1=N)c1ccccc1` (configuration not stated) [8-imino-2-oxo-N-(1-phenylethyl)-2H,8H-pyrano[2,3-f]chromene-9-carboxamide (4h)] displayed an IC50 of 462 nM.

`N=c1oc2ccc3ccc(=O)oc3c2cc1C(=O)NCc1ccccc1Br` [N-(2-bromobenzyl)-8-imino-2-oxo-2H,8H-pyrano[2,3-f]chromene-9-carboxamide (4l)] returned an IC50 of 27 nM.

`N=c1oc2ccc3ccc(=O)oc3c2cc1C(=O)N1CCOCC1` [8-imino-9-(morpholine-4-carbonyl)-2H,8H-pyrano[2,3-f]chromen-2-one (4f)] yielded an IC50 of 226 nM.

On to `N=c1oc2ccc3ccc(=O)oc3c2cc1C(=O)NCc1ccccc1` [N-benzyl-8-imino-2-oxo-2H,8H-pyrano[2,3-f]chromene-9-carboxamide (4g)], for which it took 497 nM to reach half-maximal inhibition (IC50).

`N=c1oc2ccc3ccc(=O)oc3c2cc1C(=O)NC1CCCCC1` [N-cyclohexyl-8-imino-2-oxo-2H,8H-pyrano[2,3-f]chromene-9-carboxamide (4e)] had an IC50 of 169 nM.

Consider `N=c1oc2ccc3ccc(=O)oc3c2cc1C(=O)NC(c1ccccc1)c1ccccc1` [N-benzhydryl-8-imino-2-oxo-2H,8H-pyrano[2,3-f]chromene-9-carboxamide (4i)], for which half-maximal inhibition (IC50) required 669 nM.

In turn, `N=c1oc2ccc3ccc(=O)oc3c2cc1C(=O)NCc1cccc(Cl)c1` [N-(3-chlorobenzyl)-8-imino-2-oxo-2H,8H-pyrano[2,3-f]chromene-9-carboxamide (4o)] displayed an IC50 of 88 nM.

In the case of `COc1ccc(C(C)NC(=O)c2cc3c(ccc4ccc(=O)oc43)oc2=N)cc1` (configuration not stated) [8-imino-N-(1-(4-methoxyphenyl)ethyl)-2-oxo-2H,8Hpyrano[2,3-f]chromene-9-carboxamide (4j)], the IC50 turned out to be 390 nM.

Regarding `Cc1cc(=O)oc2c1ccc1oc(=N)c(C(=O)NCc3ccc(C(C)(C)C)cc3)cc12` [N-(4-(tert-butyl)benzyl)-8-imino-4-methyl-2-oxo-2H,8H-pyrano[2,3-f]chromene-9-carboxamide (4p)], the IC50 was 77 nM.

The compound `CCCCCCCCCCCCNC(=O)c1cc2c(ccc3ccc(=O)oc32)oc1=N` [N-dodecyl-8-imino-2-oxo-2H,8H-pyrano[2,3-f]chromene-9-carboxamide (4c)] showed an IC50 of 83 nM.

Compound `N=c1oc2ccc3ccc(=O)oc3c2cc1C(=O)NCc1cccc(Br)c1` [N-(3-bromobenzyl)-8-imino-2-oxo-2H,8H-pyrano[2,3-f]chromene-9-carboxamide (4m)] had an IC50 of 13 nM.

For the compound `CCNC(=O)c1cc2c(ccc3ccc(=O)oc32)oc1=N` [N-ethyl-8-imino-2-oxo-2H,8H-pyrano[2,3-f]chromene-9-carboxamide (4b)], half-maximal inhibition (IC50) required 259 nM.

Compound `N=c1oc2ccc3ccc(=O)oc3c2cc1C(=O)NCc1ccccc1Cl` [N-(2-chlorobenzyl)-8-imino-2-oxo-2H,8H-pyrano[2,3-f]chromene-9-carboxamide (4n)] yielded an IC50 of 30 nM.

Regarding `N=c1oc2ccc3ccc(=O)oc3c2cc1C(=O)NC1CC1` [N-cyclopropyl-8-imino-2-oxo-2H,8H-pyrano[2,3-f]chromene-9-carboxamide (4d)], the IC50 turned out to be 799 nM.

A word on the IC50: it is the concentration that gives 50% inhibition. A lower IC50 goes with inhibition by little substance.
